Laboratory results reported in patent US6426356B1, “Imidazoethyl thiophenes” (Ortho-McNeil Pharmaceutical, Inc., priority 1998, dated 2002).
Where two headings read alike, the source gives them in different places.

Assays:
[1] = molecular target: T1, Alpha-2D Adrenergic Receptor (Rattus norvegicus, UniProt P22909); assay: Alpha-2D adrenergic receptor binding assay (3H-para-aminoclonidine, rat cortex synaptic membranes)
T1 construct: aliquots of the synaptic membrane fraction, the ligand ^3H-para-aminoclonidine and test drug; from tissue; host or cells: rat brain cortex synaptic membrane fraction (male Wistar rats)
T1 sequence (P22909 1-465): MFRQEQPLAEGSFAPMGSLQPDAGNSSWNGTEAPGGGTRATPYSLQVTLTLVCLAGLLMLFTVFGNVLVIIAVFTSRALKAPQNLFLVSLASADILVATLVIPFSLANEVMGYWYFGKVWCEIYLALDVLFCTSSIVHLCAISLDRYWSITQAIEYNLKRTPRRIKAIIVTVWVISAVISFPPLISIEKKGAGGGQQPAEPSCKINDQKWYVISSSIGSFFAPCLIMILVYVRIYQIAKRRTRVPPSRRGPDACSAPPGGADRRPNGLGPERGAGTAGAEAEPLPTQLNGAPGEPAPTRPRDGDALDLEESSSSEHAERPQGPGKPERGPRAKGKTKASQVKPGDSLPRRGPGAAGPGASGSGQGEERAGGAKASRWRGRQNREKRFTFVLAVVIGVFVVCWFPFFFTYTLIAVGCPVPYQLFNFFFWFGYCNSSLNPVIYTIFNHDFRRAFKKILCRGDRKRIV
Method: Alpha-2D Adrenergic Receptor Binding Assay
Male, Wistar rats (150-250 g, VAF, Charles River, Kingston, N.Y.) are sacrificed by cervical dislocation and their brains removed and placed immediately in ice cold HEPES buffered sucrose. The cortex is dissected out and homogenized in 20 volumes of HEPES sucrose in a Teflon™-glass homogenizer. The homogenate is centrifuged at 1000 g for 10 min, and the resulting supernatant centrifuged at 42,000 g for 10 min. The resulting pellet is resuspended in 30 volumes of 3 mM potassium phosphate buffer, pH 7.5, preincubated at 25 ° C. for 30 min and recentrifuged. The resulting pellet is resuspended as described above and used for the receptor binding assay. […] The incubation is terminated by filtration of the tube contents through glass fiber filter sheets. Following washing of the sheets with 10 mM HEPES buffer, the adhering radioactivity is quantified by liquid scintillation spectrometry.
Binding of the test drug to the receptor is determined by comparing the amount of radiolabeled ligand bound in control tubes without drug to the amount of radiolabeled ligand bound in the presence of the drug. Dose-response data are analyzed with LIGAND, a nonlinear curve fitting program designed specifically for the analysis of ligand binding data.

[2] = system: mouse acetylcholine bromide-induced abdominal constriction; assay: Mouse acetylcholine bromide-induced abdominal constriction assay (MAIT); format: in vivo; conditions: po; % inhibition of abdominal constriction; dose not given
Method: Mouse Acetylcholine Bromide-Induced Abdominal Constriction Assay (MAIT)
The mouse acetylcholine bromide-induced abdominal constriction assay, as described by Collier et al. in Brit. […] The test drugs or appropriate vehicle were administered orally (p.o.) and 30 minutes later the animal received an intraperitoneal (i.p.) injection of 5.5 mg/kg acetylcholine bromide (Matheson, Coleman and Bell, East Rutherford, N.J.). The mice were then placed in groups of three into glass bell jars and observed for a ten minute observation period for the occurrence of an abdominal constriction response (defined as a wave of constriction and elongation passing caudally along the abdominal wall, accompanied by a twisting of the trunk and followed by extension of the hind limbs). The percent inhibition of this response to a nociceptive stimulus (equated to % analgesia) was calculated as follows: The % Inhibition of response, i.e., % analgesia is equal to the difference between the number of control animals responding and the number of drug-treated animals responding times 100 divided by the number of control animals responding.
At least 15 animals were used for control and in each of the drug treated groups.

[3] = system: mouse acetylcholine bromide-induced abdominal constriction; assay: as above; format: in vivo; conditions: sc; % inhibition of abdominal constriction; dose not given
[4] = 3H-para-aminoclonidine, rat cortex membranes, read-out: α2D Ki

## Cc1ccc(/C=C/c2c[nH]cn2)s1 [Cp-12]
[1]
  Ki: 22 nM
[2]
  MAIT: 7 po

## c1nc(CCc2ccsc2)c[nH]1 [Cp-3]
[1]
  Ki: 0.53 nM
[2]
  MAIT: 53 po

## CCc1ccc(CCc2c[nH]cn2)s1 [Cp-6]
[1]
  Ki: 1.2 nM
[2]
  MAIT: 20 po

## Cc1ccsc1/C=C/c1c[nH]cn1 [Cp-13]
[1]
  Ki: 3.2 nM

## CCc1ccc(/C=C/c2c[nH]cn2)s1 [Cp-17]
[3]
  MAIT: 13 sc
[1]
  Ki: 22 nM

## Brc1csc(C=Cc2c[nH]cn2)c1 [Cp-16]
[1]
  Ki: 31 nM
[2]
  MAIT: 20 po

## Cc1ccc(CCc2c[nH]cn2)s1 [Cp-4]
[1]
  Ki: 1.1 nM
[2]
  MAIT: 7 po

## CCc1sccc1CCc1c[nH]cn1 [Cp-5]
[1]; [4]
  Ki: 1.8 nM
[2]
  MAIT: 67 po

## CCc1csc(C=Cc2c[nH]cn2)c1 [Cp-18]
[3]
  MAIT: 53 sc
[1]
  Ki: 26 nM

## c1csc(CCc2c[nH]cn2)c1 [Cp-2]
[1]
  Ki: 0.1 nM
[2]
  MAIT: 60 po

## Cc1ccsc1CCc1c[nH]cn1 [Cp-1]
[1]; [4]
  Ki: 0.075 nM
[2]
  MAIT: 93 po

## Clc1ccc(/C=C/c2c[nH]cn2)s1 [Cp-14]
[1]
  Ki: 17 nM
[2]
  MAIT: 20 po

## CCc1csc(CCc2c[nH]cn2)c1 [Cp-8]
[1]
  Ki: 0.15 nM
[2]
  MAIT: 20 po
